Consider 2 molecules from patent US6352982B1, “4,1-benzoxazepines, their analogues, and their use as somatostatin agonists” (Takeda Chemical Industries, Ltd., priority 1997, dated 2002).

Where a name gives a salt, the structure may show the parent alone.

Assay [1] has as its target T1, human somatostatin receptor SSTR2 (Homo sapiens, UniProt P30874).
T1 construct: expressed in transfected cells; host or cells: CHO (dhfr-) cells, strain SSTR2-HS5-9
Kind of assay: Binding inhibition of 125I-somatostatin, CHO cell membrane fraction. The conditions noted are these: 125I-somatostatin binding, 25° C. for 60 minutes, read-out: Activities for human somatostatin receptor (IC50 value) SSTR2. Here is the method:
(§1) A human somatostatin receptor expression CHO cell strain, SSTR1-8-3, SSTR2-HS5-9, SSTR3-15-19, SSTR4-1-2 or SSTR5-32-4 (10^9), was suspended in a phosphate buffered saline containing 5mM of EDTA (PBS-EDTA). The suspension was centrifuged. To the cell pellet was added 10 ml of a homogenation buffer solution for cells (10 mM NaHCO3, 5 mM EDTA, pH=7.5). The mixture was homogenized by a Politron homogenizer and centrifuged at 400×g for 15 minutes. The supernatant obtained was farther centrifuged at 100,000×g for an hour to obtain a precipitate of the membrane fraction. The precipitate was suspended in 2 ml of a buffer solution for assay ([…], 0.1% of BSA (bovine serum albumin) and […], 1 μ/ml of pepstatin, 20 μg/ml of leupeptin, 10 μg/ml of phosphoramide, pH=7.5). The suspension was centrifuged at […] for an hour. The membrane fraction recovered as precipitate was suspended again in 20 ml of buffer solution for assay. The suspension was placed in tubes and stored at −80° C. The suspension was thawed when used, and used at every use.
(§2) The membrane fraction prepared in Example 1 was diluted with a buffer solution for assay to adjust the concentration to 3 μg/ml. The diluate was placed in tubes each in quantity of 173 μl. To this were simultaneously added 2 μl of a solution of a compound in DMSO and 25μl of a 200pM radioisotope-labeled somatostatin (^125I-somatostatin: Amersham) solution. For measurement of the maximum binding, a reaction mixture added with 2 μl of DMSO and 25μl of a 200pM ^125I-somatostatin solution was prepared. For measurement of non-specific binding, a reaction mixture added with 2 μl of a 100 μM somatostatin solution diluted in DMSO and 25 μl of a 200pM ^125I-somatostatin solution was prepared at the same time. The mixtures were allowed to react at 25° C. for 60 minutes. Then, the reaction mixture was filtered by aspiration using a GF/B glass fiber filter paper (Whatman) treated with polyethylenimine. After filtration, the radioactivity of 125I-somatostatin remaining on the filter paper was measured by a γ-counter.
(§3) The binding rate (%) of each compound was calculated by the formula: […]
(§4) (where PBM: Percent maximum Binding, B: radioactivity when a compound was added, Bo: maximum binding radioactivity, NSB: non-specific binding radioactivity). The binding rates were calculated by changing the concentrations of the compound to obtain the 50% inhibiting concentration of the compound (IC50 value) by the Hil l plots.
(§5) The activities (IC50 value, μM) of the compounds for each human somatostatin receptor obtained by the above method are shown in the following Table 5.

The target in assay [2] is T2, human somatostatin receptor SSTR3 (Homo sapiens, UniProt P32745).
T2 construct: expressed in transfected cells; host or cells: CHO (dhfr-) cells, strain SSTR3-15-19
The assay is described as above. Conditions: 125I-somatostatin binding, 25° C. for 60 minutes, read-out: Activities for human somatostatin receptor (IC50 value) SSTR3. Here is the method:
as §1, §2, §3, §4, §5

Assay [3] deals with T3, human somatostatin receptor SSTR5 (Homo sapiens, UniProt P35346).
T3 construct: expressed in transfected cells; host or cells: CHO (dhfr-) cells, strain SSTR5-3-2-4 (also printed SSTR5-32-4)
The description is as above. The conditions noted are these: 125I-somatostatin binding, 25° C. for 60 minutes, read-out: Activities for human somatostatin receptor (IC50 value) SSTR5. As to the method: as §1, §2, §3, §4, §5

Assay [4] deals with T4, human somatostatin receptor SSTR4 (Homo sapiens, UniProt P31391).
T4 construct: expressed in transfected cells; host or cells: CHO (dhfr-) cells, strain SSTR4-1-2
The assay is described as above. The conditions noted are these: 125I-somatostatin binding, 25° C. for 60 minutes, read-out: Activities for human somatostatin receptor (IC50 value) SSTR4. As to the method: as §1, §2, §3, §4, §5

Assay [5] has as its system primary cell culture of the rat anterior pituitary. Kind of assay: Inhibition of growth hormone (GH) secretion from primary cell culture. Format: cell-based. Conditions: GHRH-stimulated, 37° C. for 3 hours; for EC50: Rattus norvegicus, GH by RIA, read-out: ED50 values, inhibition of GH secretion. Here is the method: The anterior pituitaries were excised from the decapitated skull of 40 unanesthetized male rats of 8 weeks of age. The anterior pituitaries were placed in a laboratory dish containing the buffer A (consisting of 137 mM of sodium chloride, 5 mM of potassium chloride, 0.7 mM of disodium hydrogen phosphate, 25 mM of 2-[4-(2-hydroxyethyl)-1-piperazinyl]ethane sulfonic acid (HEPES) (pH 7.3), and 50 μg/ml of gentamicin sulfate] and washed once with the buffer A. Each anterior pituitary was cut into 4 pieces by scissors and washed twice again. The pieces of the anterior pituitaries were incubated in 30 ml of Enzyme Solution I [buffer A solution containing 0.4% of collagenase (Boehringer Mannheim), 0.4% of bovine serum albumin, 10 μg/ml of deoxyribonuclease (Sigma) and 0.2% of glucose] at 37° C. under shaking for 1 hour. After dispersion of the pieces of the anterior pituitaries by a Komagome pipette, the solution was centrifuged (480×g, for 6 minutes). The supernatant was discarded. The sediment was suspended in 30 ml of Enzyme Solution II [buffer A solution containing 0.25% of pancreatin (Sigma)] and incubated at 37° C. under shaking for 8 minutes. After adding 2 ml of fetal calf serum, the cell suspension was centrifuged (480×g, for 6 minutes) again and the supernatant was discarded. The sediment was suspended in 10 ml of Medium I [Dulbecco modified Eagle's Medium (DMEM) containing 10% of fetal calf serum, 20 mM of HEPES (pH 7.3), 50 U/ml of penicillin G and 50 μg/ml of streptomycin] and filtered through nylon mesh. The cells thus obtained were washed twice with 10 ml of Medium I. The number of the cells was counted, and the cells were suspended in Medium I in the cell density of 1.5×10^5 cells/ml. The aliquots of 1 ml each of the cell suspension were placed in the wells of 24-well plate and incubated at 37° C. for 3 days in the carbon dioxide incubator under 5% carbon dioxide-95% air environment. The cells were washed twice with 1 ml of Medium II (Medium I containing 0.2% bovine serum albumin instead of 10% fetal calf serum) and then incubated in 1 ml of Medium II for 1 hour. The supernatant was discarded. To each well of the 24-well plate 0.8 ml each of Medium II was added, and 0.1 ml of Medium II containing somatostatin-14 (SS-14) or the compound of Example 5 or the compound of Example 102 in the concentration of 10 times the final concentration and 0.1 ml of 10 nM growth hormone releasing hormone (GHRH) were added thereto. After incubation at 37° C. for 3 hours, 0.6 ml of the supernatant of the each well was collected to obtain a supernatant solution by the centrifugation on 1,000×g for 8 minutes. GH concentrations in the supernatant were determined by radioimmunoassay (RIA) kit of Amersham.

T3 sequence (P35346 whole entry): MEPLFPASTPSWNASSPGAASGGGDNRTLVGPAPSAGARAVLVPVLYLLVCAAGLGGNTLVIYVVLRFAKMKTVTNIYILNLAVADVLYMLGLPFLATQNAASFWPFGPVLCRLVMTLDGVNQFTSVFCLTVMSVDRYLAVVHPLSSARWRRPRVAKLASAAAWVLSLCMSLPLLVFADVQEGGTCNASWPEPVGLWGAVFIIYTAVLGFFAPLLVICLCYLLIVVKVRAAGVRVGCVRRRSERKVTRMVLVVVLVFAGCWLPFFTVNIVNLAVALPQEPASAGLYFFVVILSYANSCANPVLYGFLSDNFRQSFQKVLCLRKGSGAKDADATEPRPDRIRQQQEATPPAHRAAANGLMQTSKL
T1 sequence (P30874 whole entry): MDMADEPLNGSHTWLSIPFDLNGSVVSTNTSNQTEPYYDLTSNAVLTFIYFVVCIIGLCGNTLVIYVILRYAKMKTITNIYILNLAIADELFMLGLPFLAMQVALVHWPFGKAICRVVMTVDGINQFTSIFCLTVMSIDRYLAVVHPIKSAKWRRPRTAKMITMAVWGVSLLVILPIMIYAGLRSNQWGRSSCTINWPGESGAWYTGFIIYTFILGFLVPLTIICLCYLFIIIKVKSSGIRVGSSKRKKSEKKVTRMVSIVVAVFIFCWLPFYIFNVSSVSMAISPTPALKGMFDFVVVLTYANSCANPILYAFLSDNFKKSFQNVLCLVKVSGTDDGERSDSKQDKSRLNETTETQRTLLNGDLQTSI
T2 sequence (P32745 whole entry): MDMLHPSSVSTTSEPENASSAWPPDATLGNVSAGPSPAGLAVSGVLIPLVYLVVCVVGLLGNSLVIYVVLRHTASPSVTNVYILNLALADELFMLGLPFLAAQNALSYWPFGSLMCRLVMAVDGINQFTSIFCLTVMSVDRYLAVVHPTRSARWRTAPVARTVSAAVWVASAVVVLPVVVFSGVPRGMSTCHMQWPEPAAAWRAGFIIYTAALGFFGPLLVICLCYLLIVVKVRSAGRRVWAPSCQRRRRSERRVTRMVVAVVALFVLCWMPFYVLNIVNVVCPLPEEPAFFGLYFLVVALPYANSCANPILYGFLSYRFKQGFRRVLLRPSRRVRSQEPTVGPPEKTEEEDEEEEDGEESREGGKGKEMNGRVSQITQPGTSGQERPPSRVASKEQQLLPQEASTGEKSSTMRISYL
T4 sequence (P31391 whole entry): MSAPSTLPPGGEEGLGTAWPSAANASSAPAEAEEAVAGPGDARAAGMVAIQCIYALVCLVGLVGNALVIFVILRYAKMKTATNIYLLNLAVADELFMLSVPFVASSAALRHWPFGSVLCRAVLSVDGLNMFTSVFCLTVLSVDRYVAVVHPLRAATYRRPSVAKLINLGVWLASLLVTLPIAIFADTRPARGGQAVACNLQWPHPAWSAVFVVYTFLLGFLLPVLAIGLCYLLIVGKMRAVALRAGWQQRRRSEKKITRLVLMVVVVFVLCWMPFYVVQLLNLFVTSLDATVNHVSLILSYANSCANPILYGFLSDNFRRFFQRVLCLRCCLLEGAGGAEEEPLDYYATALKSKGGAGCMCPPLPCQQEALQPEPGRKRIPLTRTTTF

As usually defined, the IC50 is the concentration that gives 50% inhibition. On to `NCc1cccc(C2OC(CC(=O)NCc3ccccc3F)C(=O)N(Cc3ccc(-c4ccccc4)cc3)c3ccc(Cl)cc32)c1` (stereo not drawn) [Example 5, 3,5-Trans-N-(2-fluorobenzyl)-5-(3-aminomethylphenyl)-1-(4-biphenylmethyl)-7-chloro-2-oxo-1,2,3,5-tetrahydro-4,1-benzoxazepine-3-acetamide•monohydrochloride], for which the IC50 in assay [1] came to 100 nM; in assay [2], 3 nM; in assay [3], 0.7 nM; in assay [4], 300 nM. Besides, the “GH secretion from the primary cell culture of rat anterior pituitary” value in assay [5] is recorded as “inhibited dose-dependently”. Moreover, the EC50 in assay [5] was found to be 8 nM.
Turning to `NCc1cccc(C2OC(CC(=O)NCc3ccccc3F)C(=O)N(Cc3ccc(O)cc3)c3ccc(Cl)cc32)c1` (stereo not drawn) [Example 102, 3,5-Trans-N-(2-fluorobenzyl)-5-(3-aminomethylphenyl)-7-chloro-1-(4-hydroxybenzyl)-2-oxo-1,2,3,5-tetrahydro-4,1-benzoxazepine-3-acetamide•monohydrochloride], the IC50 in assay [1] was 60 nM; in assay [2] it was 80 nM; in assay [3], 0.1 nM; in assay [4] it was 300 nM. In assay [5], the “GH secretion from the primary cell culture of rat anterior pituitary” value is on record as “inhibited dose-dependently”. Further, the EC50 in assay [5] stood at 10 nM.
